Read-outs that look alike come from different tables or passages of the source.
How the values were obtained:
MOLM-13 cells = experiment: Cell viability assay (CellTiter-Glo) in MOLM-13 cells, alone or with gilteritinib; format: cell-based; conditions: Homo sapiens, MOLM-13 cells, three days, CellTiter-Glo
MV4;11 cells = experiment: Cell viability assay (CellTiter-Glo) in MV4;11 cells, alone or with gilteritinib; format: cell-based; conditions: Homo sapiens, MV4;11 cells, three days, CellTiter-Glo, read-out: MV4
[1] = MOLM-13, 72 h, compound alone (without gilteritinib), read-out: MOLM-13 IC50
[2] = MOLM-13, 72 h, compound with gilteritinib 20 nM, read-out: MOLM-13 IC50 gilteritinib
[3] = MV4-11, 72 h, compound alone (without gilteritinib), 11 IC50
[4] = MV4-11, 72 h, compound with gilteritinib 10 nM, 11 IC50 gilteritinib
[5] = 72 h, compound alone (without gilteritinib), read-out: MOLM-13 IC50
[6] = 72 h, compound with gilteritinib 20 nM, read-out: MOLM-13 IC50 gilteritinib
[7] = 72 h, compound alone (without gilteritinib), 11 IC50
[8] = 72 h, compound with gilteritinib 10 nM, 11 IC50 gilteritinib

SMILES	IC50 (MOLM-13 cells; [1]) [µM]	IC50 (MOLM-13 cells; [2]) [µM]	IC50 (MV4;11 cells; [3]) [µM]	IC50 (MV4;11 cells; [4]) [µM]	IC50 (MOLM-13 cells; [5]) [µM]	IC50 (MOLM-13 cells; [6]) [µM]	IC50 (MV4;11 cells; [7]) [µM]	IC50 (MV4;11 cells; [8]) [µM]
O=C1CCC(N2C(=O)c3ccc(NCCCCCCn4cc(-c5cnc6ccc(C7=CCNCC7)cc6n5)cn4)cc3C2=O)C(=O)N1 (stereo not shown) [GS-531, 2-(2,6-Dioxopiperidin-3-yl)-5-((6-(4-(7-(1,2,3,6-tetrahydropyridin-4-yl)quinoxalin-2-yl)-1H-pyrazol-1-yl)hexyl)amino)isoindoline-1,3-dione]	0.01 to 0.1	< 0.01	0.01 to 0.1	< 0.01	–	–	–	–
O=C1CCC(N2C(=O)c3ccc(NCCCCCCn4cc(-c5cnc6ccc(N7CCNCC7)cc6n5)cn4)cc3C2=O)C(=O)N1 (stereo not shown) [GS-532, 2-(2,6-Dioxopiperidin-3-yl)-5-((6-(4-(7-(piperazin-1-yl)quinoxalin-2-yl)-1H-pyrazol-1-yl)hexyl)amino)isoindoline-1,3-dione]	0.1 to 1	< 0.01	0.01 to 0.1	< 0.01	–	–	–	–
O=C1CCC(N2Cc3cc(CNC(=O)C(F)(F)CCC(=O)N4CCC(n5cc(-c6cnc7ccccc7n6)cn5)CC4)ccc3C2=O)C(=O)N1 (stereo not shown) [GS-533, N-((2-(2,6-dioxopiperidin-3-yl)-1-oxoisoindolin-5-yl)methyl)-2,2-difluoro-5-oxo-5-(4-(4-(quinoxalin-2-yl)-1H-pyrazol-1-yl)piperidin-1-yl)pentanamide]	> 1	> 1	0.1 to 1	0.01 to 0.1	–	–	–	–
Cc1nn(CCCCCCNc2ccc3c(c2)C(=O)N(C2CCC(=O)NC2=O)C3=O)cc1-c1cnc2ccccc2n1 (stereo not shown) [GS-534, 2-(2,6-Dioxopiperidin-3-yl)-5-((6-(3-methyl-4-(quinoxalin-2-yl)-1H-pyrazol-1-yl)hexyl)amino)isoindoline-1,3-dione]	0.01 to 0.1	< 0.01	0.01 to 0.1	< 0.01	–	–	–	–
Cc1c(-c2cnc3ccccc3n2)cnn1CCCCCCNc1ccc2c(c1)C(=O)N(C1CCC(=O)NC1=O)C2=O (stereo not shown) [GS-535, 2-(2,6-dioxopiperidin-3-yl)-5-((6-(5-methyl-4-(quinoxalin-2-yl)-1H-pyrazol-1-yl)hexyl)amino)isoindoline-1,3-dione]	> 1	< 0.01	0.01 to 0.1	0.01 to 0.1	–	–	–	–
O=C1CCC(N2C(=O)c3ccc(NCCCCCCn4ccc(-c5cnc6ccccc6n5)n4)cc3C2=O)C(=O)N1 (stereo not shown) [GS-536, 2-(2,6-Dioxopiperidin-3-yl)-5-((6-(3-(quinoxalin-2-yl)-1H-pyrazol-1-yl)hexyl)amino)isoindoline-1,3-dione]	> 1	0.01 to 0.1	> 1	0.1 to 1	–	–	–	–
O=C1CCC(N2C(=O)c3ccc(NCCCCCCn4nccc4-c4cnc5ccccc5n4)cc3C2=O)C(=O)N1 (stereo not shown) [GS-537, 2-(2,6-dioxopiperidin-3-yl)-5-((6-(5-(quinoxalin-2-yl)-1H-pyrazol-1-yl)hexyl)amino)isoindoline-1,3-dione]	> 1	0.01 to 0.1	0.1 to 1	0.1 to 1	–	–	–	–
O=C1CCC(N2C(=O)c3ccc(NCC4CC(n5cc(-c6cnc7ccccc7n6)cn5)C4)cc3C2=O)C(=O)N1 (stereo not shown) [GS-538, 2-(2,6-Dioxopiperidin-3-yl)-5-(((3-(4-(quinoxalin-2-yl)-1H-pyrazol-1-yl)cyclobutyl)methyl)amino)isoindoline-1,3-dione]	0.1 to 1	0.01 to 0.1	0.1 to 1	0.01 to 0.1	–	–	–	–
O=C1CCC(N2C(=O)c3ccc(NCC4CC5(C4)CC(n4cc(-c6cnc7ccccc7n6)cn4)C5)cc3C2=O)C(=O)N1 (stereo not shown) [GS-539, 2-(2,6-Dioxopiperidin-3-yl)-5-(((6-(4-(quinoxalin-2-yl)-1H-pyrazol-1-yl)spiro[3.3]heptan-2-yl)methyl)amino)isoindoline-1,3-dione]	> 1	0.1 to 1	> 1	0.1 to 1	–	–	–	–
Cc1nn(CCCCCCNc2ccc3c(c2)C(=O)N(C2CCC(=O)NC2=O)C3=O)c(C)c1-c1nc2ccccc2nc1C(F)(F)F (stereo not shown) [GS-540, 5-((6-(3,5-Dimethyl-4-(3-(trifluoromethyl)quinoxalin-2-yl)-1H-pyrazol-1-yl)hexyl)amino)-2-(2,6-dioxopiperidin-3-yl)isoindoline-1,3-dione]	> 1	0.01 to 0.1	> 1	0.01 to 0.1	–	–	–	–
O=C1CCC(N2C(=O)c3ccc(NCCCCCCn4cc(-c5cnc6ccc(C7CCNCC7)cc6n5)cn4)cc3C2=O)C(=O)N1 (stereo not shown) [GS-541, 2-(2,6-Dioxopiperidin-3-yl)-5-((6-(4-(7-(piperidin-4-yl)quinoxalin-2-yl)-1H-pyrazol-1-yl)hexyl)amino)isoindoline-1,3-dione]	0.01 to 0.1	< 0.01	0.1 to 1	< 0.01	–	–	–	–
O=C1CCC(N2C(=O)c3ccc(NCCCCCCn4cc(-c5cnc6ccc(C7CCOCC7)cc6n5)cn4)cc3C2=O)C(=O)N1 (stereo not shown) [GS-542, 2-(2,6-Dioxopiperidin-3-yl)-5-((6-(4-(7-(tetrahydro-2H-pyran-4-yl)quinoxalin-2-yl)-1H-pyrazol-1-yl)hexyl)amino)isoindoline-1,3-dione]	0.01 to 0.1	< 0.01	0.01 to 0.1	< 0.01	–	–	–	–
O=C1CCC(N2C(=O)c3ccc(NCCCCC(=O)N4CCC(n5cc(-c6cnc7ccc(N8CCNCC8)cc7n6)cn5)CC4)cc3C2=O)C(=O)N1 (stereo not shown) [GS-543, 2-(2,6-Dioxopiperidin-3-yl)-5-((5-oxo-5-(4-(4-(7-(piperazin-1-yl)quinoxalin-2-yl)-1H-pyrazol-1-yl)piperidin-1-yl)pentyl)amino)isoindoline-1,3-dione]	0.01 to 0.1	< 0.01	0.01 to 0.1	< 0.01	–	–	–	–
O=C1CCC(N2C(=O)c3ccc(NCCCCC(=O)N4CCC(n5cc(-c6cnc7ccc(C8=CCNCC8)cc7n6)cn5)CC4)cc3C2=O)C(=O)N1 (stereo not shown) [GS-544, 2-(2,6-Dioxopiperidin-3-yl)-5-((5-oxo-5-(4-(4-(7-(1,2,3,6-tetrahydropyridin-4-yl)quinoxalin-2-yl)-1H-pyrazol-1-yl)piperidin-1-yl)pentyl)amino)isoindoline-1,3-dione]	0.1 to 1	< 0.01	0.1 to 1	< 0.01	–	–	–	–
O=C1CCC(N2C(=O)c3ccc(NCCCCC(=O)N4CCC(c5cnc6ccccc6n5)CC4)cc3C2=O)C(=O)N1 (stereo not shown) [GS-545, 2-(2,6-Dioxopiperidin-3-yl)-5-((5-oxo-5-(4-(quinoxalin-2-yl)piperidin-1-yl)pentyl)amino)isoindoline-1,3-dione]	0.1 to 1	0.01 to 0.1	> 1	0.1 to 1	–	–	–	–
Cc1cn(CCCCCCNc2ccc3c(c2)C(=O)N(C2CCC(=O)NC2=O)C3=O)nc1-c1cnc2ccccc2n1 (stereo not shown) [GS-546, 2-(2,6-Dioxopiperidin-3-yl)-5-((6-(4-methyl-3-(quinoxalin-2-yl)-TH-pyrazol-1-yl)hexyl)amino)isoindoline-1,3-dione]	> 1	0.01 to 0.1	> 1	0.1 to 1	–	–	–	–
O=C1CCC(N2C(=O)c3ccc(NCCCCCCn4cc(-c5nc6ccccc6nc5C(F)F)cn4)cc3C2=O)C(=O)N1 (stereo not shown) [GS-547, 5-((6-(4-(3-(Difluoromethyl)quinoxalin-2-yl)-1H-pyrazol-1-yl)hexyl)amino)-2-(2,6-dioxopiperidin-3-yl)isoindoline-1,3-dione]	–	–	–	–	> 1	0.01 to 0.1	0.1 to 1	0.01 to 0.1
CN1CCC(c2ccc3ncc(-c4cnn(CCCCCCNc5ccc6c(c5)C(=O)N(C5CCC(=O)NC5=O)C6=O)c4)nc3c2)CC1 (stereo not shown) [GS-548, 2-(2,6-Dioxopiperidin-3-yl)-5-((6-(4-(7-(1-methylpiperidin-4-yl)quinoxalin-2-yl)-1H-pyrazol-1-yl)hexyl)amino)isoindoline-1,3-dione]	0.1 to 1	< 0.01	0.1 to 1	< 0.01	–	–	–	–
Cc1nn(CCCCCCNc2ccc3c(c2)C(=O)N(C2CCC(=O)NC2=O)C3=O)c(C)c1-c1ccc2ccccc2n1 (stereo not shown) [GS-549, 5-((6-(3,5-Dimethyl-4-(quinolin-2-yl)-1H-pyrazol-1-yl)hexyl)amino)-2-(2,6-dioxopiperidin-3-yl)isoindoline-1,3-dione]	0.1 to 1	< 0.01	0.1 to 1	0.01 to 0.1	–	–	–	–
O=C1CCC(N2C(=O)c3ccc(NCCCCCCn4cc(-c5cnc6ccccc6n5)c(C(F)(F)F)n4)cc3C2=O)C(=O)N1 (stereo not shown) [GS-550, 2-(2,6-Dioxopiperidin-3-yl)-5-((6-(4-(quinoxalin-2-yl)-3-(trifluoromethyl)-1H-pyrazol-1-yl)hexyl)amino)isoindoline-1,3-dione]	0.1 to 1	0.01 to 0.1	0.1 to 1	0.01 to 0.1	–	–	–	–
O=C1CCC(N2C(=O)c3ccc(NCCCCC(F)(F)Cn4cc(-c5cnc6ccccc6n5)cn4)cc3C2=O)C(=O)N1 (stereo not shown) [GS-551, 5-((5,5-Difluoro-6-(4-(quinoxalin-2-yl)-1H-pyrazol-1-yl)hexyl)amino)-2-(2,6-dioxopiperidin-3-yl)isoindoline-1,3-dione]	–	–	–	–	> 1	0.01 to 0.1	> 1	0.1 to 1
O=C1CCC(N2C(=O)c3ccc(NCCCCCCn4cc(-c5cnc6ccccc6n5)c(C5CC5)n4)cc3C2=O)C(=O)N1 (stereo not shown) [GS-552, 5-((6-(3-Cyclopropyl-4-(quinoxalin-2-yl)-1H-pyrazol-1-yl)hexyl)amino)-2-(2,6-dioxopiperidin-3-yl)isoindoline-1,3-dione]	0.1 to 1	< 0.01	0.1 to 1	0.01 to 0.1	–	–	–	–

From US20240050428A1 (Cullgen (Shanghai), Inc., priority 2020, published 2024)
